This is an account of results in patent publication US9464110B2, “Acyl dipeptide derivative” (AJINOMOTO CO., INC., priority 2012, dated 2016).

Values after ≈ are worked out from the molar mass of the structure shown. Where a SMILES comes first, the peptide text is derived from it. The star is where a group is joined. Decanoyl = CCCCCCCCCC(=O)*

In experiment [1] the test system is Trichophyton mentagrophytes. Description: minimal growth inhibitory concentration (MIC) test, agar dilution. It is filed as cell-based. As to conditions: 168 h, Sabouraud glucose agar medium, 25° C., 7 days, read-out: minimal growth inhibitory concentration against Trichophyton mentagrophytes. As to the method: (§1) The compound of Synthetic Example 1 was subjected to a minimal growth inhibitory concentration (MIC) test against Propionibacterium acnes (P. acnes) and Trichophyton mentagrophytes (T. mentagrophytes). The test method is shown below. (1) Preparation of Test Bacterial Culture Propionibacterium acnes: Anaerobically cultured in a GAM agar medium at 35° C. for 48 hr. A part thereof was transplanted into a GAM bouillon medium, and anaerobically cultured at 35° C. for 24 hr. The culture medium was diluted with GAM bouillon medium to adjust to about 10^6 cells/mL and used as a test bacterial culture. Trichophyton mentagrophytes: Test bacteria were cultured in a Sabouraud glucose agar medium at 25° C. for 7-14 days, spore and hypha pick were scraped with a platinum loop, suspended in polysorbate 80 0.05% sterile saline and ground in a homogenizer. The solution was filtered through sterile gauze folded in four, and diluted with polysorbate 80 0.05% sterile saline to adjust to about 10^6 cells/mL and used as a test bacterial culture. (2) Preparation of Antimicrobial Agent Dilution Solution A sample was diluted with sterile purified water to prepare a 100000-1000 μg (active ingredient)/mL dilution series. (3) Preparation of Antimicrobial Agent-Added Agar Medium The agar medium was dispensed by 9.0 mL into a test tube and, after autoclave sterilization, and incubated in a molten state at 50° C. […]
On the technique in general: In agar dilution, organisms are placed on agar that contains the substance at set levels.

In the next experiment the test system is Propionibacterium acnes. Described as above. It is filed as cell-based. Particulars: Cutibacterium acnes; GAM agar medium, 35° C., 48 hr anaerobic culture; read-out: minimal growth inhibitory concentration against Propionibacterium acnes. As to the method:
as §1

On to `CCCCCCCCCC(=O)N1CCC[C@H]1C(=O)N1CCC[C@H]1C(=O)O` [Synthetic Example 1, decanoyl prolylproline] (Decanoyl-Pro-Pro-OH), for which the MIC in experiment [1] is 1000 to 1500 µg/mL (≈ 2.73 to 4.09 mM); in the experiment on Propionibacterium acnes, 2000 to 3000 µg/mL (≈ 5.46 to 8.19 mM).
